The nature of data set [1]: in vivo. The settings on record: Brown Norway, iv. On the procedure: This intravenous dosing solution is administered to a Brown Norway rat. After a given interval from the administration, for example, 24, 72 and 168 hours after the administration, blood is collected. Then, the rat is euthanized while the eyeballs are excised. A posterior eye tissue such as the choroid and/or the sclera, the retina, or the optic nerve is harvested therefrom. A given amount of an aqueous solution containing an organic solvent (e.g., a 50 vol % methanol solution) is added to the harvested posterior eye tissue, which is then homogenized, for example, to prepare an assay sample. The drug concentration in this assay sample can be measured using a liquid chromatograph-tandem mass spectrometer (LC/MS/MS) to measure the compound concentration in the posterior eye tissue in the case of systemic administration. The elimination half-life of the compound in the posterior eye tissue can be further calculated from time-dependent change in compound concentration in the posterior eye tissue.
Each compound was dissolved in DMA. […] Each intravenous dosing solution was administered (0.5 mL/kg) to the tail vein of each Brown Norway rat. Twenty-four, 72 and 168 hours after the administration, blood was collected. Then, the animal was euthanized, and the eyeballs were excised. The eyeballs were washed, and a choroid/sclera sample was then harvested.
A given amount of a 50 vol % methanol solution was added to the harvested choroid/sclera sample, which was then homogenized. Acetonitrile was further added thereto, and the mixture was stirred. The sample was centrifuged, and the supernatant was harvested. A 0.1 vol % formic acid solution was added thereto to prepare an assay sample. The drug concentration in the assay sample was measured using a liquid chromatograph-tandem mass spectrometer (LC/MS/MS).

The nature of data set [2]: Test Example 3: pharmacokinetics, single ocular instillation to rat, concentration in choroid/sclera. The data set is classed as in vivo, Brown Norway rat. The note with it: rats, 4 hours. On the procedure:
The nanoparticle compositions of the present invention prepared in accordance with Examples 1 and 26 and the nanoparticle compositions of the present invention obtained in Examples 50, 52, 53, 54, 57 and 96 were evaluated for their pharmacokinetics when administered at a single dose by ocular instillation to rats. Each nanoparticle composition was administered at a single dose by ocular instillation to the right eyes of male Brown Norway rats (5 μL/eye, n=2 for each group). Four hours after the ocular instillation, each rat was euthanized, and the right eyeball was excised. The eyeball was washed, and a choroid/sclera sample was then harvested.
(§1) The sample was centrifuged, and the supernatant was harvested. A 10 mmol/L ammonium acetate solution was added thereto to prepare an assay sample.

The nature of data set [3]: Test Example 6: pharmacokinetics, single ocular instillation to cynomolgus monkey, concentration in choroid. The note with it: cynomolgus monkeys. Type of data set: in vivo. On the procedure: The nanoparticle composition of the present invention prepared according to Example 1 and the microparticle composition prepared according to Comparative Example 1 were evaluated for their pharmacokinetics when administered at a single dose by ocular instillation to male cynomolgus monkeys. The nanoparticle composition of the present invention prepared according to Example 1 was administered by ocular instillation (50 μL/eye) to the right eye of each animal, while the microparticle composition prepared according to Comparative Example 1 was administered by ocular instillation (50 μL/eye) to the left eye thereof. Four hours or 48 hours (n=2 for each point in time) after the ocular instillation, blood was collected. […] The eyeballs were washed, and a choroid tissue was then harvested.
as §1

The nature of data set [4]: Test Example 1: pharmacokinetics, single ocular instillation to rat, concentration in choroid/sclera. Type of data set: in vivo, Brown Norway rat. The note with it: nanoparticle composition, mean particle size 1000 nm or smaller. On the procedure: The nanoparticle compositions of the present invention obtained in Examples 19 and 24 and the microparticle compositions obtained in Comparative Examples 3 and 4 were evaluated for their pharmacokinetics when administered at a single dose by ocular instillation (4 to 12 μL/eye, n=2 for each group) to rats. Each nanoparticle composition was administered at a single dose by ocular instillation to the right eyes of male Brown Norway rats. Four to 7 hours after the ocular instillation, each rat was euthanized, and the right eyeball was excised. The eyeball was washed, and an eyeball tissue sample (choroid/sclera) was then harvested.
as §1

Data set [5] can be described thus: Test Example 5: pharmacokinetics, single ocular instillation to rabbit, compound III in choroid/retina. Type of data set: in vivo, Kbl:Dutch rabbit. The settings on record: rabbits, all particle sizes evaluated. On the procedure: The nanoparticle compositions obtained in Reference Examples 11 to 13 and the microparticle composition prepared according to Comparative Example 1 were evaluated for their pharmacokinetics when administered at a single dose by ocular instillation (20 μL/eye) to Kbl:Dutch rabbits. Each of the nanoparticle compositions obtained in Reference Examples 11 to 13 and the microparticle composition prepared according to Comparative Example 1 was administered at a single dose by ocular instillation to the left eyes of the animals (n=3 for each condition). 1.5 hours after the ocular instillation, each animal was euthanized, and the eyeballs were excised. The eyeballs were washed, and a choroid/retina sample was then harvested.
as §1

Data set [6] in a line: Test Example 10: pharmacokinetics of compounds IV to VIII, single ocular instillation to rat, concentration in choroid/sclera. Type of data set: in vivo, Brown-Norway rat. The note with it: rats, 1.5 hours. On the procedure:
1.5 hours after the ocular instillation, blood was collected. Then, the animal was euthanized, and both the eyeballs were excised.
The sample was centrifuged, and the supernatant was harvested.

Setting [7] is: rat, 0.2 mg/kg, Half-life in choroid and sclera.

Molecules are shown by their SMILES. Structures can show the parent of a compound that is named as a salt.

The half-life is the time needed for the level to fall by half in the phase considered. Low readings indicate rapid decline, high ones slow decline. In turn, `COc1cc2ncnc(Nc3cccc(Cl)c3)c2cc1OC` [AG-1478, N-(3-chlorophenyl)-N-(6,7-dimethoxyquinazolin-4-yl)amine] had a half-life in data set [1] (rat, 0.05 mg/kg, Half-life in choroid and sclera) of 42.8 h.
The molecule `COc1cc2ncnc(Nc3cccc(Cl)c3F)c2cc1OC(=O)N1CCN(C)C[C@H]1C` [AZD-3759, 4-[(3-chloro-2-fluorophenyl)amino]-7-methoxyquinazolin-6-yl (2R)-2,4-dimethylpiperazine-1-carboxylate] gave a half-life in data set [1] (setting [7]) of 120 h.
Regarding `COc1cc2nccc(Oc3ccc(NC(=O)Nc4cc(C)on4)c(Cl)c3)c2cc1OC` [Compound II, N-[2-chloro-4-(6,7-dimethoxyquinolin-4-yloxy)phenyl]-N′-(5-methylisoxazol-3-yl)urea hydrochloride hydrate], the “transfer to the choroid and/or the sclera” value in data set [2] was “high transfer to the choroid and/or the sclera”; in data set [4], “drastically enhanced transfer to the choroid and/or the sclera”. In data set [3], the “concentration in the choroid, compound II vs regorafenib” value is “much higher than that of regorafenib”.
In the case of `CNC(=O)c1cc(Oc2ccc(NC(=O)Nc3ccc(Cl)c(C(F)(F)F)c3)c(F)c2)ccn1` [Compound III, 4-{4-[3-(4-chloro-3-trifluoromethylphenyl)-ureido]-3-fluorophenoxy}pyridine-2-carboxylic acid methylamide], the “transfer to the choroid” value in data set [5] was “very low”.
With `COc1cc2c(Oc3ccc4[nH]c(C)cc4c3F)ccnc2cc1OCC1(N)CC1` [Compound IV, 1-[[4-[(4-fluoro-2-methyl-1H-indol-5-yl)oxy]-6-methoxyquinolin-7-yl]oxymethyl]cyclopropan-1-amine], the half-life in data set [1] (setting [7]) is 141 h. For the same molecule, the “transfer to the choroid and/or the sclera, nanoparticle vs microparticle composition” value (“transfer … vs microparticle composition” below) in data set [6] was “moderately improved transfer”.
In data set [1] (setting [7]), `COc1cc2nccc(Oc3ccc(NC(=O)NC4CC4)c(Cl)c3)c2cc1C(N)=O` [Compound V, 4-[3-chloro-4-(cyclopropylcarbamoylamino)phenoxy]-7-methoxyquinoline-6-carboxamide] gave a half-life of 42.3 h.
`COC(=O)c1ccc2c(c1)NC(=O)/C2=C(\Nc1ccc(N(C)C(=O)CN2CCN(C)CC2)cc1)c1ccccc1` [Compound VI, methyl (3Z)-3-[({4-[N-methyl-2-(4-methylpiperazin-1-yl)acetamido]phenyl}amino)(phenyl)methylidene]-2-oxo-2.3-dihydro-1H-indole-6-carboxylate] had a half-life in data set [1] (setting [7]) of 194 h. For the same molecule, in data set [6], the “transfer … vs microparticle composition” value was “did not differ in transfer to the choroid and/or the sclera”.
With `COc1cc2ncnc(Nc3ccc(F)c(Cl)c3)c2cc1NC(=O)/C=C/CN1CCCCC1` [Compound VII, (E)-N-[4-(3-chloro-4-fluoroanilino)-7-methoxyquinazolin-6-yl]-4-piperidin-1-ylbut-2-enamide], the “Half-life in choroid and sclera” value in data set [1] (rat, 0.2 mg/kg) worked out at 486 h. For the same molecule, the half-life in data set [1] (setting [7]) was 918 h. Also, the “transfer … vs microparticle composition” value in data set [6] is “drastically improved transfer”.
The matching figures for `C=CC(=O)Nc1ccc2ncnc(Nc3ccc(OCc4cccc(F)c4)c(Cl)c3)c2c1` [Compound VIII, N-[4-[[3-chloro-4-[(3-fluorobenzyl)oxy]phenyl]amino]quinazolin-6-yl]acrylamide]: 40.1 h, 52.9 h and “drastically improved transfer”.
`C=CC(=O)Nc1cccc(Oc2nc(Nc3ccc(N4CCN(C)CC4)c(F)c3)nc3[nH]ccc23)c1` [avitinib] gave a half-life in data set [1] (in vivo, 0.2 mg/kg, Half-life in choroid and sclera, EGFR inhibitors, intravenous single dose 0.2 mg/kg) of 85.5 h.
The molecule `CNC(=O)c1ccccc1Sc1ccc2c(/C=C/c3ccccn3)n[nH]c2c1` [axitinib] showed a half-life in data set [1] (setting [7]) of 57.4 h.
`COc1cc(N2CCC(N3CCN(C)CC3)CC2)ccc1Nc1ncc(Cl)c(Nc2ccccc2P(C)(C)=O)n1` [brigatinib] had a half-life in data set [1] (rat, 0.1 mg/kg) of 137 h.
Take `COc1cc2nccc(Oc3ccc(NC(=O)C4(C(=O)Nc5ccc(F)cc5)CC4)cc3)c2cc1OC` [cabozantinib]: in data set [1] (in vivo, 0.2 mg/kg, Half-life in choroid and sclera, VEGF receptor inhibitors, intravenous single dose 0.2 mg/kg), the half-life was 65.8 h.
On to `CNC(=O)c1c(C)oc2cc(Oc3ncnc4cc(OC)c(OC)cc34)ccc12` [fruquintinib], for which the half-life in data set [1] (setting [7]) is 32.5 h.
Still for that read-out and setting: the figure for `COCCNCc1ccc(-c2cc3nccc(Oc4ccc(NC(=S)NC(=O)Cc5ccc(F)cc5)cc4F)c3s2)nc1` [glesatinib] is 132 h; for `C#Cc1cccc(Nc2ncnc3cc4c(cc23)OCCOCCOCCO4)c1` [icotinib] it is 64.8 h.
On the same count and under the same terms, the figure for `CS(=O)(=O)CCNCc1ccc(-c2ccc3ncnc(Nc4ccc(OCc5cccc(F)c5)c(Cl)c4)c3c2)o1` [lapatinib] is 246 h; for `Cc1cc(C(=O)Nc2nc3cccc(Cl)c3n2[C@@H]2CCCCN(C(=O)/C=C/CN(C)C)C2)ccn1` [nazartinib] it is 65.4 h.
The same measure, in the same setting: the figure for `C=CC(=O)N1CCC(Oc2cc3c(Nc4ccc(Cl)c(Cl)c4F)ncnc3cc2OC)CC1` [poziotinib] is 31.9 h.
Molecule `COc1cc2c(Nc3ccc(Cl)c(Cl)c3F)ncnc2cc1OC[C@@H]1C[C@@H]2CN(C)C[C@@H]2C1` [tesevatinib] showed a half-life in data set [1] (setting [7]) of 305 h.
Still for that read-out and setting: the result for `C[C@@H]1COC(Nc2ccc3ncnc(Nc4ccc(OCc5nccs5)c(Cl)c4)c3c2)=N1` [varlitinib] reads 46.1 h.

For the origin of these results see patent US10894043B2, “Pharmaceutical composition” (Kyowa Kirin Co., Ltd., priority 2016, dated 2021).
